The text below walks through data of ChEMBL document CHEMBL2021882, “Aglycone-focused randomization of 2-difluoromethylphenyl-type sialoside suicide substrates for neuraminidases” (Bioorg Med Chem, 2012).

The assay concerns Vibrio cholerae.

Description: Inhibition of Vibrio cholerae neuraminidase using 4-MU-NANA as substrate preincubated for 15 mins prior addition of substrate measured at 5 mins intervals by fluorimetry relative to control

In the case of `COc1ncc(C(F)(F)F)cc1NC(=O)OCc1cn(-c2ccc(O[C@]3(C(=O)O)C[C@H](O)[C@@H](NC(C)=O)[C@H]([C@H](O)[C@H](O)CO)O3)c(C(F)F)c2)nn1`, the Kinact came out at 0.091 min⁻¹ and the T1/2 worked out at 7.6 min.
